Test results: the NIST ThermoML archive (doi:10.1016/j.fluid.2006.05.015)
± gives the expanded uncertainty stated by the source.

Test: mn = molality of the nth substance listed, in mol/kg
Details: Liquid, Constant-volume piezometry

[Br-].[K+] [potassium bromide] + O
Details | mass density [kg/m3]
298.15 K, 101 kPa, m1 = 0.2378 | 1017 ± 1.2
298.15 K, 101 kPa, m1 = 0.4645 | 1035.5 ± 1.2
298.15 K, 101 kPa, m1 = 0.944 | 1073.1 ± 1.3
298.15 K, 101 kPa, m1 = 2.231 | 1167.1 ± 1.4
298.94 K, 4079 kPa, m1 = 0.944 | 1074.6 ± 1.3
298.94 K, 13886 kPa, m1 = 0.944 | 1079.1 ± 1.3
298.94 K, 28950 kPa, m1 = 0.944 | 1085.8 ± 1.3
303.15 K, 101 kPa, m1 = 0.2378 | 1015.5 ± 1.2
303.15 K, 101 kPa, m1 = 0.4645 | 1033.8 ± 1.2
303.15 K, 101 kPa, m1 = 0.944 | 1071.4 ± 1.3
303.15 K, 101 kPa, m1 = 2.231 | 1164.9 ± 1.4
305.49 K, 3020 kPa, m1 = 0.2378 | 1016 ± 1.2
305.49 K, 10375 kPa, m1 = 0.2378 | 1019.1 ± 1.2
305.49 K, 27594 kPa, m1 = 0.2378 | 1026.4 ± 1.3
308.15 K, 101 kPa, m1 = 0.2378 | 1013.7 ± 1.2
308.15 K, 101 kPa, m1 = 0.4645 | 1032 ± 1.2
308.15 K, 101 kPa, m1 = 0.944 | 1069.3 ± 1.3
308.15 K, 101 kPa, m1 = 2.231 | 1162.4 ± 1.4
308.32 K, 3256 kPa, m1 = 0.4645 | 1033.3 ± 1.2
308.32 K, 10375 kPa, m1 = 0.4645 | 1036.5 ± 1.3
308.32 K, 29078 kPa, m1 = 0.4645 | 1044.3 ± 1.3
310.59 K, 2118 kPa, m1 = 2.231 | 1162.1 ± 1.4
310.59 K, 14710 kPa, m1 = 2.231 | 1167.8 ± 1.4
310.59 K, 19825 kPa, m1 = 2.231 | 1170.1 ± 1.4
310.59 K, 29828 kPa, m1 = 2.231 | 1174.5 ± 1.5
313.15 K, 101 kPa, m1 = 0.2378 | 1011.8 ± 1.2
313.15 K, 101 kPa, m1 = 0.4645 | 1030.1 ± 1.2
313.15 K, 101 kPa, m1 = 0.944 | 1067.2 ± 1.3
313.15 K, 101 kPa, m1 = 2.231 | 1159.9 ± 1.4
318.15 K, 101 kPa, m1 = 0.2378 | 1009.8 ± 1.2
318.15 K, 101 kPa, m1 = 0.4645 | 1027.9 ± 1.2
318.15 K, 101 kPa, m1 = 0.944 | 1065 ± 1.3
318.15 K, 101 kPa, m1 = 2.231 | 1157.4 ± 1.4
323.15 K, 101 kPa, m1 = 0.2378 | 1007.5 ± 1.2
323.15 K, 101 kPa, m1 = 0.4645 | 1025.6 ± 1.2
323.15 K, 101 kPa, m1 = 0.944 | 1062.5 ± 1.3
323.15 K, 101 kPa, m1 = 2.231 | 1154.8 ± 1.4
328.15 K, 101 kPa, m1 = 0.2378 | 1005.1 ± 1.2
328.15 K, 101 kPa, m1 = 0.4645 | 1023.2 ± 1.2
328.15 K, 101 kPa, m1 = 0.944 | 1060 ± 1.3
328.15 K, 101 kPa, m1 = 2.231 | 1152.1 ± 1.4
333.15 K, 101 kPa, m1 = 0.2378 | 1002.6 ± 1.2
333.15 K, 101 kPa, m1 = 0.4645 | 1020.5 ± 1.2
333.15 K, 101 kPa, m1 = 0.944 | 1057.4 ± 1.3
333.15 K, 101 kPa, m1 = 2.231 | 1149.3 ± 1.4
338.15 K, 101 kPa, m1 = 0.2378 | 999.9 ± 1.2
338.15 K, 101 kPa, m1 = 0.4645 | 1017.8 ± 1.2
338.15 K, 101 kPa, m1 = 0.944 | 1054.6 ± 1.3
338.15 K, 101 kPa, m1 = 2.231 | 1146.4 ± 1.4
343.15 K, 101 kPa, m1 = 0.2378 | 997.1 ± 1.2
343.15 K, 101 kPa, m1 = 0.4645 | 1014.9 ± 1.2
343.15 K, 101 kPa, m1 = 0.944 | 1051.7 ± 1.3
343.33 K, 3923 kPa, m1 = 0.4645 | 1016.4 ± 1.2
343.33 K, 9552 kPa, m1 = 0.4645 | 1018.7 ± 1.2
343.33 K, 16550 kPa, m1 = 0.4645 | 1021.6 ± 1.3
343.33 K, 28570 kPa, m1 = 0.4645 | 1026.7 ± 1.3
348.15 K, 101 kPa, m1 = 0.2378 | 994.2 ± 1.2
348.15 K, 101 kPa, m1 = 0.4645 | 1012 ± 1.2
348.15 K, 101 kPa, m1 = 0.944 | 1048.7 ± 1.3
349.79 K, 3334 kPa, m1 = 0.2378 | 994.6 ± 1.2
349.79 K, 11278 kPa, m1 = 0.2378 | 997.9 ± 1.2
349.79 K, 23461 kPa, m1 = 0.2378 | 1003.1 ± 1.2
349.79 K, 29380 kPa, m1 = 0.2378 | 1005.5 ± 1.3
358.08 K, 3668 kPa, m1 = 0.944 | 1043.1 ± 1.3
358.08 K, 10120 kPa, m1 = 0.944 | 1046.1 ± 1.3
358.08 K, 29145 kPa, m1 = 0.944 | 1054.5 ± 1.3
359.48 K, 3824 kPa, m1 = 2.231 | 1132.6 ± 1.4
359.48 K, 10866 kPa, m1 = 2.231 | 1135.7 ± 1.4
359.48 K, 18995 kPa, m1 = 2.231 | 1139.3 ± 1.4
359.48 K, 25870 kPa, m1 = 2.231 | 1142.3 ± 1.4
380.97 K, 3746 kPa, m1 = 0.4645 | 990.6 ± 1.2
380.97 K, 9316 kPa, m1 = 0.4645 | 993.2 ± 1.2
380.97 K, 21042 kPa, m1 = 0.4645 | 998.6 ± 1.2
380.97 K, 29750 kPa, m1 = 0.4645 | 1002.5 ± 1.3
393.11 K, 3256 kPa, m1 = 0.2378 | 963.5 ± 1.2
393.11 K, 10866 kPa, m1 = 0.2378 | 967.2 ± 1.2
393.11 K, 21065 kPa, m1 = 0.2378 | 972 ± 1.2
393.11 K, 26860 kPa, m1 = 0.2378 | 974.7 ± 1.2
400.81 K, 3099 kPa, m1 = 0.944 | 1010.2 ± 1.2
400.81 K, 9061 kPa, m1 = 0.944 | 1013 ± 1.2
400.81 K, 18381 kPa, m1 = 0.944 | 1017.7 ± 1.3
400.81 K, 25438 kPa, m1 = 0.944 | 1020.8 ± 1.3
432.97 K, 4236 kPa, m1 = 2.231 | 1073.5 ± 1.3
432.97 K, 11356 kPa, m1 = 2.231 | 1077.7 ± 1.3
432.97 K, 16570 kPa, m1 = 2.231 | 1080.7 ± 1.4
432.97 K, 22357 kPa, m1 = 2.231 | 1084 ± 1.4
434.09 K, 4805 kPa, m1 = 0.2378 | 928.1 ± 1.1
434.09 K, 9218 kPa, m1 = 0.2378 | 930.6 ± 1.2
434.09 K, 16941 kPa, m1 = 0.2378 | 935 ± 1.2
434.09 K, 28064 kPa, m1 = 0.2378 | 941.1 ± 1.2
453.99 K, 3825 kPa, m1 = 0.4645 | 925.6 ± 1.1
453.99 K, 9140 kPa, m1 = 0.4645 | 928.9 ± 1.2
453.99 K, 16241 kPa, m1 = 0.4645 | 933.5 ± 1.2
453.99 K, 22957 kPa, m1 = 0.4645 | 937.5 ± 1.2
456.48 K, 4158 kPa, m1 = 0.944 | 959.4 ± 1.2
456.48 K, 10120 kPa, m1 = 0.944 | 963.3 ± 1.2
456.48 K, 17148 kPa, m1 = 0.944 | 967.9 ± 1.2
456.48 K, 24027 kPa, m1 = 0.944 | 972.2 ± 1.2
475.7 K, 4903 kPa, m1 = 0.2378 | 884.5 ± 1.1
475.7 K, 10611 kPa, m1 = 0.2378 | 888.7 ± 1.1
475.7 K, 22060 kPa, m1 = 0.2378 | 896.6 ± 1.1
475.7 K, 29860 kPa, m1 = 0.2378 | 902 ± 1.2
482.36 K, 4413 kPa, m1 = 0.4645 | 893.9 ± 1.1
482.36 K, 8571 kPa, m1 = 0.4645 | 897 ± 1.1
482.36 K, 15175 kPa, m1 = 0.4645 | 902 ± 1.1
482.36 K, 20588 kPa, m1 = 0.4645 | 905.8 ± 1.2
483.32 K, 5217 kPa, m1 = 2.231 | 1024.2 ± 1.3
483.32 K, 12082 kPa, m1 = 2.231 | 1029.2 ± 1.3
483.32 K, 22088 kPa, m1 = 2.231 | 1036.8 ± 1.3
483.32 K, 26194 kPa, m1 = 2.231 | 1039.4 ± 1.3
493.15 K, 4413 kPa, m1 = 0.944 | 918.4 ± 1.1
493.15 K, 11591 kPa, m1 = 0.944 | 923.9 ± 1.2
493.15 K, 21454 kPa, m1 = 0.944 | 931.3 ± 1.2
493.15 K, 25284 kPa, m1 = 0.944 | 934.3 ± 1.2
505.79 K, 5786 kPa, m1 = 2.231 | 999.3 ± 1.2
505.79 K, 11846 kPa, m1 = 2.231 | 1004 ± 1.3
505.79 K, 16954 kPa, m1 = 2.231 | 1007.9 ± 1.3
505.79 K, 23854 kPa, m1 = 2.231 | 1013.5 ± 1.3
511.39 K, 6119 kPa, m1 = 0.4645 | 858.4 ± 1.1
511.39 K, 10297 kPa, m1 = 0.4645 | 862.3 ± 1.1
511.39 K, 16047 kPa, m1 = 0.4645 | 867.8 ± 1.1
511.39 K, 24184 kPa, m1 = 0.4645 | 875.1 ± 1.1
520.89 K, 7355 kPa, m1 = 0.944 | 884.8 ± 1.1
520.89 K, 12082 kPa, m1 = 0.944 | 889.3 ± 1.1
520.89 K, 20122 kPa, m1 = 0.944 | 896.9 ± 1.2
534.22 K, 8081 kPa, m1 = 0.2378 | 809.6 ± 1
534.22 K, 11356 kPa, m1 = 0.2378 | 813.5 ± 1
534.22 K, 23496 kPa, m1 = 0.2378 | 827 ± 1.1
540.44 K, 8571 kPa, m1 = 0.4645 | 819.8 ± 1
540.44 K, 11591 kPa, m1 = 0.4645 | 823.1 ± 1
540.44 K, 22189 kPa, m1 = 0.4645 | 836.2 ± 1.1
551.72 K, 9140 kPa, m1 = 0.944 | 842.2 ± 1.1
551.72 K, 14533 kPa, m1 = 0.944 | 848.7 ± 1.1
551.72 K, 21645 kPa, m1 = 0.944 | 857.5 ± 1.1
555.7 K, 9708 kPa, m1 = 2.231 | 941.3 ± 1.2
555.7 K, 13965 kPa, m1 = 2.231 | 946 ± 1.2
555.7 K, 19995 kPa, m1 = 2.231 | 952.8 ± 1.2
555.7 K, 23967 kPa, m1 = 2.231 | 957 ± 1.3
579.16 K, 11670 kPa, m1 = 0.944 | 797.3 ± 1
579.16 K, 14220 kPa, m1 = 0.944 | 803 ± 1
579.16 K, 20665 kPa, m1 = 0.944 | 816.1 ± 1.1
579.16 K, 23665 kPa, m1 = 0.944 | 822.3 ± 1.1
580.61 K, 11023 kPa, m1 = 0.4645 | 754.1 ± 1
580.61 K, 12494 kPa, m1 = 0.4645 | 757.8 ± 1
580.61 K, 19782 kPa, m1 = 0.4645 | 773.2 ± 1
592.65 K, 11234 kPa, m1 = 0.2378 | 698.5 ± 0.9
592.65 K, 13731 kPa, m1 = 0.2378 | 706.6 ± 0.9
592.65 K, 20610 kPa, m1 = 0.2378 | 725.2 ± 1
608.09 K, 16573 kPa, m1 = 0.4645 | 703.4 ± 0.9
608.09 K, 17652 kPa, m1 = 0.4645 | 707.1 ± 0.9
608.09 K, 23146 kPa, m1 = 0.4645 | 725.8 ± 1
616.41 K, 14847 kPa, m1 = 0.944 | 714.7 ± 0.9
616.41 K, 15769 kPa, m1 = 0.944 | 727.1 ± 1
616.41 K, 19875 kPa, m1 = 0.944 | 753.5 ± 1
628.63 K, 17475 kPa, m1 = 2.231 | 841.1 ± 1.1
628.63 K, 18221 kPa, m1 = 2.231 | 844.9 ± 1.1
